Columns and labels:
Human Th2 cells = assay: Human primary Th2 cells, proliferation (viability, MTS assay); type: cell-based; conditions: Human primary Th2 cells; combined data from 10 different experiments; read-out: Prol. IC50
Protocol: Briefly, CD4^+CD45RA^+ T cells, isolated from donor peripheral blood mononuclear cells of healthy donors, are educated in the presence of anti-CD3/CD28 antibodies and various growth factors to obtain either a Thl-like or Th2-like phenotypes as determined by the known cytokine profiles of these two cell types.
Peripheral blood mononuclear cells (PBMC) are prepared from human blood by Ficoll-Hypacque (Pharmacia). The cells are washed two times in Hanks balanced salt solution (HBSS) and counted.
Naive T cells (CD4^+/CD45RA ) are prepared by negative selection method using following antibodies and Dynabeads: anti-CD8, anti-HLA-DR, (where HLA means human leucocyte antigen) anti-CD14, anti-CD16, anti-CD19, anti-CD45RO antibodies (all from R&D Systems, 1-2 µg/ml) are added to the cells, and the cells are kept on ice for 30 min. The cells are washed two times in HBSS, and goat anti- mouse Ig-beads, (bead:target ratio, 5:1) are added. The cells and beads are slowly rotated at 4°C for 20 min. (following the protocol supplied from Dynal). The supernatant is removed and fresh goat anti-mouse Ig-beads are added to the supernatant, which is slowly rotated at 4°C for 20 min. The cells are counted and phenotypically characterized by flow cytometric analysis.
CD4^+/CD45RA^+ cells at a density of 10^6/ml in RPMI, is prepared and added to RPMI medium containing 10% Hyclone serum/ glutamine and 1-2 µg/ml anti-CD28 Ab. The cells are split in two aliquots. For Th1 cells: anti-IL-4 Ab (1-2 µg/ml), IFN-γ (1 µg/ml, or 5000 units/ml) are added to the wells. For Th2 cells: IL-4 (100-200 ng/ml), anti-IFN-γ neutralizing Ab (1-2 µg/ml), anti-IL-12 neutralizing Ab (1-2 µg/ml) are added into the wells. […] The cells are transferred to fresh wells and grown in 200 units/ml IL-2 for 2 weeks by feeding them every other day with IL-2 containing medium and splitting the cultures 1:2 or 1:3 as needed. The degree of polarization is determined by intracellular staining of cells with anti-IFN-γ and anti-IL-4 antibodies from Pharmingen, and using flow cytometry from Becton Dickinson (BD), according to manufacturers description. The cells are stimulated with PHA and alloantigens at day 14 and 28 as described below. Eight days after the second allostimulation the cells can be used for compound screening or frozen for future use. For compound testing, large quantities of Th1 and Th2 cells derived from a given donor (NYTh1 and NYTh2) were expanded and frozen as aliquots in liquid nitrogen. The cells are thawed and cultured as and when needed. The thawed cells are stimulated with alloantigen/PHA combination. The cells are used for compound screening after 8-10 days in culture.
Re-stimulation by allogeneic cells: Human PBMCs, to be used as alloantigens, are isolated from freshly drawn blood by Ficoll separation. […] Cells are counted and diluted to a final concentration of 2 x 10^6/ml in medium containing 10 µg/ml PHA and 200 units/ml IL-2.
Ninetysix well Falcon tissue culture plates (Fisher Scientific) are coated with 100 microliters per well of 10 µg/ml anti-CD3 (PharMingen) antibody in phosphate buffered saline (PBS) and stored at 4°C one day before the experiment.
On the day of assay, anti-CD3 antibody coated plates are washed with PBS once to remove all soluble anti-CD3 antibody. […] All compounds and controls are assayed in triplicates.

[1] = system: sheep allergic to Ascaris suum; assay: Sheep asthma model (Ascaris suum antigen challenge); type: in vivo
Protocol: Briefly, transpulmonary pressure, pulmonary resistance (RL), specific lung resistance (SRL airway hyperreactivity, airway responsiveness, are determined.
Venous blood samples (-5 ml) are obtained from a peripheral leg vein or the jugular vein for pharmacokinetic data. Measurement of Airway Mechanics: The unsedated sheep are restrained in a cart in the prone position with their heads immobilized. After topical anesthesia of the nasal passages with 2% lidocaine solution, a balloon catheter is advanced through one nostril into the lower esophagus. The animals are […] with a cuffed endotracheal tube through the other nostril using a flexible fiberoptic bronchoscope as a guide. (The cuff of the endotracheal tube is inflated only for the measurement of airway mechanics and during aerosol challenges to prevent undue discomfort. This procedure has no effect on airway mechanics). Pleural pressure is estimated with the esophageal balloon catheter (filled with one ml of air) which is positioned 5-10 cm from the gastroesophageal junction. In this position the end expiratory pleural pressure ranges between -2 and -5 cm H20. […] Lateral pressure in the trachea is measured with a sidehole catheter (inner dimension, 2.5 mm) advanced through and positioned distal to the tip of the endotracheal tube. Transpulmonary pressure, the difference between tracheal and pleural pressure, is measured with a differential pressure transducer catheter system. […] The signals of flow and transpulmonary pressure is recorded on an oscilloscope recorder which is linked to a computer for on-line calculation of RL from transpulmonary pressure, respiratory volume (obtained by digital integration) and flow. […] Immediately after the measurement of RL, thoracic gas volume (Vtg) is measured in a constant volume body plethysmograph to obtain specific lung resistance (SRL = RL . Vtg) in L x cm H20/LPS. […] To assess airway responsiveness, the cumulative carbachol dose in breath units (BU) that increases SRL 400% over the post-buffer value (i.e. PC400) is calculated from the dose response curve. […]

[2] = 3 mg/kg aerosol 30 min before antigen challenge, 2 sheep per group, FIG. 3A

Structure (SMILES): O=C(O)c1[nH]c2ccccc2c1Nc1ccncc1 [Example 28, 3-(4-Pyridinylamino)-1H-indole-2-carboxylic acid]
- IC50 (Human Th2 cells): > 10 µM
- acute increase in specific lung resistance (SRL), early bronchial response [1, 2]: did not affect
- late bronchial response (SRL) [1, 2]: blocked the late response
- post challenge airway responsiveness (PC400 decrease after antigen challenge) ([1]; 3 mg/kg, 2 sheep, FIG. 3B): prevented this effect
